Measurements from the NIST ThermoML archive (doi:10.1016/j.fluid.2014.04.027).

Assay: xn = mol fraction of the nth substance listed
Conditions: 100 kPa, Liquid, Alternating current cell with electrodes

CCCCCCCCCCCCOS(=O)(=O)[O-].[Na+] [sodium dodecyl sulfate] + O
electrical conductivity [S/m]
Conditions | 298.15 K | 308.15 K | 318.15 K
x1 = 6.348e-05 | 0.024 | 0.0249 | 0.0283
x1 = 6.643e-05 | 0.0245 | 0.0255 | 0.029
x1 = 6.967e-05 | 0.0252 | 0.0264 | 0.0298
x1 = 7.324e-05 | 0.0261 | 0.0273 | 0.0306
x1 = 7.72e-05 | 0.0269 | 0.0282 | 0.0317
x1 = 8.16e-05 | 0.0278 | 0.0292 | 0.0329
x1 = 8.4e-05 | 0.0284 | 0.0298 | 0.0334
x1 = 8.655e-05 | 0.0291 | 0.0304 | 0.034
x1 = 8.925e-05 | 0.0297 | 0.0311 | 0.0347
x1 = 9.213e-05 | 0.0305 | 0.0317 | 0.0355
x1 = 9.519e-05 | 0.0311 | 0.0323 | 0.0362
x1 = 9.847e-05 | 0.0317 | 0.0332 | 0.0371
x1 = 0.000102 | 0.0327 | 0.0339 | 0.038
x1 = 0.0001058 | 0.0335 | 0.0349 | 0.0389
x1 = 0.0001098 | 0.0345 | 0.0359 | 0.04
x1 = 0.0001142 | 0.0353 | 0.037 | 0.0412
x1 = 0.000119 | 0.0365 | 0.0382 | 0.0424
x1 = 0.0001241 | 0.0375 | 0.0394 | 0.0436
x1 = 0.0001298 | 0.0388 | 0.0408 | 0.045
x1 = 0.0001359 | 0.0401 | 0.0423 | 0.0465
x1 = 0.0001427 | 0.0414 | 0.0439 | 0.0481
x1 = 0.0001502 | – | 0.0455 | 0.0498
x1 = 0.0001586 | – | – | 0.052
